Where two headings read alike, the source gives them in different places.

In series [1] the test system is PC-3 xenografts. Description: Biodistribution in mice bearing PC-3 xenografts. Type of series: in vivo, Balb/c nu/nu mice. The method, then: (§1) Mice were sacrificed 3 h and 22 h pi by intraperitoneal injection of a lethal dose of Ketalar-Rompun solution (10 mg/mL Ketaminol (Intervet) and 1 mg/mL Rompun (Bayer); 20 μL solution/gram of body weight). Tumors were collected as well as samples of blood, lung, liver, spleen, pancreas, stomach, small intestine, kidneys, muscle, and bone. Gastrointestinal (GI) tract and carcass were also collected. Samples were weighed, and measured for activity content in the automated gamma counter. Corrections for background, spill-over and decay were performed for all measurements.
(§2) Biodistribution of [^68Ga]Ga-NOTA-PEG2-RM26 3 h pi was included for comparison. Mice were therefore injected with 40–50 pmol (250 kBq) ^68Ga-NOTA-PEG2-RM26, euthanized 3 h pi and samples were collected according to the protocol described above.

Series [2] has as its system PC-3 cells. As to the kind of experiment: Cellular processing (membrane-bound vs internalized activity). The settings on record: 2 nM, continuous incubation 24 h, 37 °C, n = 3. Type of series: cell-based, human. As to the method: At pre-determined time points (1 h, 2 h, 4 h, 24 h) cells were incubated with 0.2 M glycine buffer (with 0.15 M NaCl, 4 M Urea, pH 2) for 5 min on ice to collect the membrane-bound activity. Thereafter, cells were incubated at 37 °C for 30 min with 1 M NaOH and collected. Activity content in those samples was considered internalized activity.

Series [3] is described as follows: Biodistribution in mice bearing PC-3 xenografts. Type of series: in vivo, Balb/c nu/nu mice. The note with it: female, Balb/c nu/nu, mouse, iv, total radioactivity, 3 h pi, 40–50 pmol iv, female Balb/c nu/nu mice with PC-3 xenografts, average ± SD, n = 3–4. The method, then: as §1, §2
For series [4], the target named is T1, GRPR (Mus musculus, UniProt P21729).
T1 construct: Mice with GRPR-expressing PC-3 xenografts (implanted 21 d before the experiment) were used for all in vivo studies; from tissue; host or cells: PC-3 xenograft tumors in female Balb/c nu/nu mice
As to the kind of experiment: In vivo specificity test (co-injection of non-labeled peptide). The arrangement: species or system Balb/c nu/nu mice. The settings on record: 3 h pi, co-injection of 10 nmol non-labeled NOTA-PEG2-RM26, p < 0.002. As to the method: For the in vivo specificity test, mice in the blocking group were co-injected with 10 nmol of non-labeled NOTA-PEG2-RM26 and sacrificed 3 h pi and samples were collected according to the protocol described above.

Series [5] is described as follows: Analysis of blood metabolites (radio-HPLC of plasma). Type of series: in vivo. The note with it: 5 min pi, NMRI mice; for radiometal associated with intact peptide in blood plasma: 1.5 nmol (6.75–7.3 MBq). The method, then:
NMRI Mice were injected with 1.5 nmol (6.75–7.3 MBq) [^68Ga]Ga-NOTA-PEG2-RM26 and sacrificed 5 min pi by cervical dislocation. Immediately after blood was collected by heart puncture into a pre-chilled heparinized Eppendorf tube. Blood samples were centrifuged (10000RCF, 10 min at 4 °C), plasma was collected and mixed with equal amount of ice cold acetonitrile. The mixture was centrifuged (15,000 RCF, 10 min, 4 °C), the supernatant was collected and sterile filtered with a 0.2 µm PTFE syringe filter. The filtrate was analyzed on HPLC according to the method described above.

T1 sequence (P21729 whole entry): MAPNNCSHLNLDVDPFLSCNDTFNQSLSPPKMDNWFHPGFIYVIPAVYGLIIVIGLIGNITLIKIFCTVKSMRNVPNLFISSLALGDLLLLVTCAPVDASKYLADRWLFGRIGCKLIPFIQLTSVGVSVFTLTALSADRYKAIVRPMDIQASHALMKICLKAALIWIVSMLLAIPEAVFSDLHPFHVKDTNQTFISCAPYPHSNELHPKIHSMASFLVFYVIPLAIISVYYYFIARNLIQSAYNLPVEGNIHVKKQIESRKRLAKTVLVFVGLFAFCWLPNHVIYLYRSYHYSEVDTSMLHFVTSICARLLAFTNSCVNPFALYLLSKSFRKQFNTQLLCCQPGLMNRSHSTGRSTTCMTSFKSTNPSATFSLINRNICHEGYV

Regarding `CC(C)C[C@H](NC(=O)C[C@H](O)[C@H](CC(C)C)NC(=O)[C@H](Cc1c[nH]cn1)NC(=O)CNC(=O)[C@@H](NC(=O)[C@H](C)NC(=O)[C@H](Cc1c[nH]c2ccccc12)NC(=O)[C@H](CCC(N)=O)NC(=O)[C@@H](Cc1ccccc1)NC(=O)COCCOCCNC(=O)CN1CCN(CC(=O)O)CCN(CC(=O)O)CC1)C(C)C)C(N)=O` [[^66Ga]Ga-NOTA-PEG2-RM26] [metal not drawn], in series [1] (3 to 22 h pi), the “change of uptake in bone during the observation period” value is “increased”. The “activity retained in tumors from 3 to 22 h pi” value in series [1] (PC-3 xenografts) is reported as “approximately 50%”. The “change of uptake in GRPR-expressing pancreas from 3 to 22 h pi” value in series [1] (p < 0.004) was “decreased significantly”.

Turning to `CC(C)C[C@H](NC(=O)C[C@H](O)[C@H](CC(C)C)NC(=O)[C@H](Cc1c[nH]cn1)NC(=O)CNC(=O)[C@@H](NC(=O)[C@H](C)NC(=O)[C@H](Cc1c[nH]c2ccccc12)NC(=O)[C@H](CCC(N)=O)NC(=O)[C@@H](Cc1ccccc1)NC(=O)COCCOCCNC(=O)CN1CCN(CC(=O)O)CCN(CC(=O)O)CC1)C(C)C)C(N)=O` [[^66Ga]Ga-NOTA-PEG2-RM26, metal not drawn], the “fraction of internalized activity, of cell-associated activity” value in series [2] worked out at 17%. The tissue uptake at 3 h in series [3] (bone, read-out: Uptake, Bone) stood at 0.5 ± 0.3 %ID/g; in series [3] (kidney, read-out: Uptake, Kidney), 1.7 ± 0.4 %ID/g; in series [3] (liver, read-out: Uptake, Liver), 0.28 ± 0.06 %ID/g; in series [3] (lung, read-out: Uptake, Lung) it was 0.5 ± 0.4 %ID/g; in series [3] (pancreas, read-out: Uptake, Pancreas) it was 3.4 ± 0.7 %ID/g; in series [3] (stomach, read-out: Uptake, Stomach) it was 1.9 ± 0.4 %ID/g. Besides, the tissue uptake at 3 h in series [3] (tumor (PC-3 xenograft), read-out: Uptake, Tumor) was 14 ± 1 %ID/g; in series [3] (whole blood, read-out: Uptake, Blood), 0.15 ± 0.06 %ID/g. Besides, the “uptake in pancreas, blocked vs non-blocked” value in series [4] is listed as “significant decrease”.

In the case of `CC(C)C[C@H](NC(=O)C[C@H](O)[C@H](CC(C)C)NC(=O)[C@H](Cc1c[nH]cn1)NC(=O)CNC(=O)[C@@H](NC(=O)[C@H](C)NC(=O)[C@H](Cc1c[nH]c2ccccc12)NC(=O)[C@H](CCC(N)=O)NC(=O)[C@@H](Cc1ccccc1)NC(=O)COCCOCCNC(=O)CN1CCN(CC(=O)O)CCN(CC(=O)O)CC1)C(C)C)C(N)=O` [[^68Ga]Ga-NOTA-PEG2-RM26, metal not drawn], the “free gallium, share of activity in blood plasma” value in series [5] came out at 6%. The results for the “radiometal associated with intact peptide in blood plasma” value in series [5] and in series [5] (listed as gallium labeled NOTA-PEG2-RM26) were “up to 57%” and “up to 60%”, respectively.

The values are drawn from paper PMC7878787 (Scientific Reports, 2021).
